{"source": "patent US11547644B2", "about": "“Emulsions comprising cationic emulsifiers based on MDIPA ester quats” (Evonik Operations GmbH, priority 2015, dated 2023)", "key": {"[1]": {"test_system": "invertebrate aquatic animals", "test": "Acute Immobilization Test (OECD 202)", "format": "in vivo", "excerpt": "(§1) Consequently, an emulsifier according to the invention (Example 2) was investigated compared to distearyldimonium chloride with the help of various OECD tests."}, "Daphnia Magna": {"test_system": "Daphnia Magna", "test": "Daphnia Magna Reproduction Test (OECD 211)", "conditions": "in vivo", "excerpt": "as §1"}, "[2]": {"test": "Biodegradability in water, OECD 301", "excerpt": "as §1"}}, "data": [{"smiles": "CCCCCCCCCCCCCCCCCC[N+](C)(C)CCCCCCCCCCCCCCCCCC.[Cl-]", "note": "[Distearyldimonium Chloride]", "values": [{"measurement": "Short-term toxicity towards invertebrate aquatic animals, EC50(48h)", "setting": "[1]", "result": "EC-50(48h) = 0.16 mg/l"}, {"measurement": "Long-term toxicity towards invertebrate aquatic animals, NOEC(21 d)", "setting": "Daphnia Magna", "result": "NOEC(21 d) = 0.38 mg/l"}, {"measurement": "Biodegradability in water", "setting": "[2]", "result": "OECD 301: 3% (28 d)"}]}]}
